According to US20250154686A1, “COMPOUND LIBRARY” (CHUGAI SEIYAKU KABUSHIKI KAISHA, priority 2021, published 2025):

Target: T1, Bcl-2 protein (Recombinant Human Bcl-2 Protein) (Homo sapiens, UniProt P10415)
T1 construct: purchased Novus Biologicals NBP2-34889
Experiment: AS-MS evaluation of binding of the Example 4 mixture library (1200 compounds/well) to Bcl-2, ASMS ratio (%)
Conditions: AS-MS, Example 4 mixture library; for ASMS ratio (%) n = 1: Bcl-2, replicate n = 1; for ASMS ratio (%) n = 2: Bcl-2, replicate n = 2
Summary of the method: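 Affinity-selection MS: 1200 cpds/well, 20 nM each; hBcl-2 20 μM; 25 mM Tris pH 7.4/150 mM NaCl/0.025% Tween-20/1 mM DTT; 1 h, 23 °C, dark; P-2 size-exclusion spin, MeCN:MeOH 1:1 extraction; RP LC/MS; ratio vs no-protein STD and SEC blank.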

T1 sequence (P10415 whole entry): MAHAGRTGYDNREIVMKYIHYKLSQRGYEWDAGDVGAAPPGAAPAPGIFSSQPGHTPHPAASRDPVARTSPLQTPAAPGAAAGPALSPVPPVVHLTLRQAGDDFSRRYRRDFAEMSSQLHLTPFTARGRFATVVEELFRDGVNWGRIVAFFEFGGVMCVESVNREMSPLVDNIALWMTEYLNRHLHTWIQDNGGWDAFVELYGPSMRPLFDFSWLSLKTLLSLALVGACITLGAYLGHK

| Structure (SMILES) | ASMS ratio (%) n = 1 [%] | ASMS ratio (%) n = 2 [%] |
| --- | --- | --- |
| CCOc1cncc(-c2cc(OC)c(CN3CCN(c4ccc(C(=O)NS(=O)(=O)c5ccc(NCCSc6ccccc6)c(C(F)(F)F)c5)cc4)CC3)c(OC)c2)c1 [Compound B2R060-01, 4-[4-[[4-(5-Ethoxypyridin-3-yl)-2,6-dimethoxyphenyl]methyl]piperazin-1-yl]-N-[4-(2-phenylsulfanylethylamino)-3-(trifluoromethyl)phenyl]sulfonylbenzamide] | 3.9 | 0.0 |
| CCOc1cccc(-c2cc(CN3CCN(c4ccc(C(=O)NS(=O)(=O)c5ccc(NCCSc6ccccc6)c(C(F)(F)F)c5)cc4)CC3)cc(C(F)(F)F)c2)c1 [Compound B2R061-01, 4-[4-[[3-(3-Ethoxyphenyl)-5-(trifluoromethyl)phenyl]methyl]piperazin-1-yl]-N-[4-(2-phenylsulfanylethylamino)-3-(trifluoromethyl)phenyl]sulfonylbenzamide] | 9.1 | −6.0 |
| CCOc1cncc(-c2cc(CN3CCN(c4ccc(C(=O)NS(=O)(=O)c5ccc(NCCSc6ccccc6)c(C(F)(F)F)c5)cc4)CC3)cc(C(F)(F)F)c2)c1 [Compound B2R062-01, 4-[4-[[3-(5-Ethoxypyridin-3-yl)-5-(trifluoromethyl)phenyl]methyl]piperazin-1-yl]-N-[4-(2-phenylsulfanylethylamino)-3-(trifluoromethyl)phenyl]sulfonylbenzamide] | 0.0 | 0.0 |
| CCOc1cccc(-c2cc(CN3CCN(c4ccc(C(=O)NS(=O)(=O)c5ccc(NCCSc6ccccc6)c(C(F)(F)F)c5)cc4)CC3)cc(OC(F)(F)F)c2)c1 [Compound B2R063-01, 4-[4-[[3-(3-Ethoxyphenyl)-5-(trifluoromethoxy)phenyl]methyl]piperazin-1-yl]-N-[4-(2-phenylsulfanylethylamino)-3-(trifluoromethyl)phenyl]sulfonylbenzamide] | 8.2 | 4.6 |
| CCOc1cncc(-c2cc(CN3CCN(c4ccc(C(=O)NS(=O)(=O)c5ccc(NCCSc6ccccc6)c(C(F)(F)F)c5)cc4)CC3)cc(OC(F)(F)F)c2)c1 [Compound B2R064-01, 4-[4-[[3-(5-Ethoxypyridin-3-yl)-5-(trifluoromethoxy)phenyl]methyl]piperazin-1-yl]-N-[4-(2-phenylsulfanylethylamino)-3-(trifluoromethyl)phenyl]sulfonylbenzamide] | 4.2 | −7.4 |
| CCOc1cccc(-c2ccc(CN3CCN(c4ccc(C(=O)NS(=O)(=O)c5ccc(NCCSc6ccccc6)c(C(F)(F)F)c5)cc4)CC3)c3ccccc23)c1 [Compound B2R065-01, 4-[4-[[4-(3-Ethoxyphenyl)naphthalen-1-yl]methyl]piperazin-1-yl]-N-[4-(2-phenylsulfanylethylamino)-3-(trifluoromethyl)phenyl]sulfonylbenzamide] | 3.8 | 0.3 |
| CCOc1cncc(-c2ccc(CN3CCN(c4ccc(C(=O)NS(=O)(=O)c5ccc(NCCSc6ccccc6)c(C(F)(F)F)c5)cc4)CC3)c3ccccc23)c1 [Compound B2R066-01, 4-[4-[[4-(5-Ethoxypyridin-3-yl)naphthalen-1-yl]methyl]piperazin-1-yl]-N-[4-(2-phenylsulfanylethylamino)-3-(trifluoromethyl)phenyl]sulfonylbenzamide] | 19.8 | −10.7 |
| CCOc1cccc(-c2csc(CN3CCN(c4ccc(C(=O)NS(=O)(=O)c5ccc(NCCSc6ccccc6)c(C(F)(F)F)c5)cc4)CC3)c2)c1 [Compound B2R067-01, 4-[4-[[4-(3-Ethoxyphenyl)thiophen-2-yl]methyl]piperazin-1-yl]-N-[4-(2-phenylsulfanylethylamino)-3-(trifluoromethyl)phenyl]sulfonylbenzamide] | 8.0 | 0.0 |
| CCOc1cncc(-c2csc(CN3CCN(c4ccc(C(=O)NS(=O)(=O)c5ccc(NCCSc6ccccc6)c(C(F)(F)F)c5)cc4)CC3)c2)c1 [Compound B2R068-01, 4-[4-[[4-(5-Ethoxypyridin-3-yl)thiophen-2-yl]methyl]piperazin-1-yl]-N-[4-(2-phenylsulfanylethylamino)-3-(trifluoromethyl)phenyl]sulfonylbenzamide] | 0.0 | 0.0 |
| CCOc1cccc(C#Cc2ccccc2CN2CCN(c3ccc(C(=O)NS(=O)(=O)c4ccc(NCCSc5ccccc5)c(C(F)(F)F)c4)cc3)CC2)c1 [Compound B2R069-01, 4-[4-[[2-[2-(3-Ethoxyphenyl)ethynyl]phenyl]methyl]piperazin-1-yl]-N-[4-(2-phenylsulfanylethylamino)-3-(trifluoromethyl)phenyl]sulfonylbenzamide] | 12.3 | −18.5 |
| CCOc1cccc(-c2ccccc2CN2CCN(c3ccc(C(=O)NS(=O)(=O)c4ccc(NCCSc5ccccc5)c(C(F)(F)F)c4)nn3)CC2)c1 [Compound B2R071-01] | 14.3 | −9.0 |
| CCOc1cncc(-c2ccccc2CN2CCN(c3ccc(C(=O)NS(=O)(=O)c4ccc(NCCSc5ccccc5)c(C(F)(F)F)c4)nn3)CC2)c1 [Compound B2R072-01] | 21.4 | 11.4 |
| CCOc1cccc(-c2ccc(CN3CCN(c4ccc(C(=O)NS(=O)(=O)c5ccc(NCCSc6ccccc6)c(C(F)(F)F)c5)nn4)CC3)cc2C)c1 [Compound B2R073-01, 6-[4-[[4-(3-Ethoxyphenyl)-3-methylphenyl]methyl]piperazin-1-yl]-N-[4-(2-phenylsulfanylethylamino)-3-(trifluoromethyl)phenyl]sulfonylpyridazine-3-carboxamide] | 24.0 | 0.0 |
| CCOc1cncc(-c2ccc(CN3CCN(c4ccc(C(=O)NS(=O)(=O)c5ccc(NCCSc6ccccc6)c(C(F)(F)F)c5)nn4)CC3)cc2C)c1 [Compound B2R074-01, 6-[4-[[4-(5-ethoxypyridin-3-yl)-3-methylphenyl]methyl]piperazin-1-yl]-N-[4-(2-phenylsulfanylethylamino)-3-(trifluoromethyl)phenyl]sulfonylpyridazine-3-carboxamide] | 22.4 | 25. |
| CCOc1cccc(-c2ccc(CN3CCN(c4ccc(C(=O)NS(=O)(=O)c5ccc(NCCSc6ccccc6)c(C(F)(F)F)c5)nn4)CC3)c(CC)c2)c1 [Compound B2R075-01, 6-[4-[[4-(3-Ethoxyphenyl)-2-ethylphenyl]methyl]piperazin-1-yl]-N-[4-(2-phenylsulfanylethylamino)-3-(trifluoromethyl)phenyl]sulfonylpyridazine-3-carboxamide] | 8.6 | 0.0 |
| CCOc1cncc(-c2ccc(CN3CCN(c4ccc(C(=O)NS(=O)(=O)c5ccc(NCCSc6ccccc6)c(C(F)(F)F)c5)nn4)CC3)c(CC)c2)c1 [Compound B2R076-01] | 3.9 | 19.7 |
| CCOc1cccc(-c2ccc(CN3CCN(c4ccc(C(=O)NS(=O)(=O)c5ccc(NCCSc6ccccc6)c(C(F)(F)F)c5)nn4)CC3)cc2F)c1 [Compound B2R077-01, 6-[4-[[4-(3-Ethoxyphenyl)-3-fluorophenyl]methyl]piperazin-1-yl]-N-[4-(2-phenylsulfanylethylamino)-3-(trifluoromethyl)phenyl]sulfonylpyridazine-3-carboxamide] | 0.0 | 0.0 |
| CCOc1cncc(-c2ccc(CN3CCN(c4ccc(C(=O)NS(=O)(=O)c5ccc(NCCSc6ccccc6)c(C(F)(F)F)c5)nn4)CC3)cc2F)c1 [Compound B2R078-01, 6-[4-[[4-(5-Ethoxypyridin-3-yl)-3-fluorophenyl]methyl]piperazin-1-yl]-N-[4-(2-phenylsulfanylethylamino)-3-(trifluoromethyl)phenyl]sulfonylpyridazine-3-carboxamide] | 15.8 | 11.7 |
| CCOc1cncc(-c2ccc(CN3CCN(c4ccc(C(=O)NS(=O)(=O)c5ccc(NCCSc6ccccc6)c(C(F)(F)F)c5)nn4)CC3)c(OC)c2)c1 [Compound B2R080-01, 6-[4-[[4-(5-Ethoxypyridin-3-yl)-2-methoxyphenyl]methyl]piperazin-1-yl]-N-[4-(2-phenylsulfanylethylamino)-3-(trifluoromethyl)phenyl]sulfonylpyridazine-3-carboxamide] | 16.7 | 21.2 |
| CCOc1cccc(-c2cc(CN3CCN(c4ccc(C(=O)NS(=O)(=O)c5ccc(NCCSc6ccccc6)c(C(F)(F)F)c5)nn4)CC3)cc(OCC)c2)c1 [Compound B2R081-01] | 21.1 | −8.8 |
| CCOc1cncc(-c2cc(CN3CCN(c4ccc(C(=O)NS(=O)(=O)c5ccc(NCCSc6ccccc6)c(C(F)(F)F)c5)nn4)CC3)cc(OCC)c2)c1 [Compound B2R082-01] | 0.0 | 0.0 |
| CCOc1cccc(-c2cc(CN3CCN(c4ccc(C(=O)NS(=O)(=O)c5ccc(NCCSc6ccccc6)c(C(F)(F)F)c5)nn4)CC3)cc(OC(C)C)c2)c1 [Compound B2R083-01, 6-[4-[[3-(3-Ethoxyphenyl)-5-propan-2-yloxyphenyl]methyl]piperazin-1-yl]-N-[4-(2-phenylsulfanylethylamino)-3-(trifluoromethyl)phenyl]sulfonylpyridazine-3-carboxamide] | 31.9 | −11.1 |
| CCOc1cncc(-c2cc(OC)c(CN3CCN(c4ccc(C(=O)NS(=O)(=O)c5ccc(NCCSc6ccccc6)c(C(F)(F)F)c5)nn4)CC3)c(OC)c2)c1 [Compound B2R086-01, 6-[4-[[4-(5-Ethoxypyridin-3-yl)-2,6-dimethoxyphenyl]methyl]piperazin-1-yl]-N-[4-(2-phenylsulfanylethylamino)-3-(trifluoromethyl)phenyl]sulfonylpyridazine-3-carboxamide] | 0.0 | 0.0 |
